Assay results from patent US20240279240A1, “HETEROCYCLIC DERIVATIVES AS JANUS KINASE INHIBITORS” (CHIESI FARMACEUTICI S.P.A., priority 2021, published 2024).

How the values were obtained:
TYK2 = TYK2 (Homo sapiens, UniProt P29597); assay: Biochemical potency on Tyk2, TR-FRET LANCE Ultra kinase assay (examples 1-99); details: ATP at Km (12 μM), read-out: Tyk2 inhibitory activity (pIC50 class) (converted)
Summary of the method: (§1)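 LANCE Ultra TR-FRET with ULight-JAK-1 (Tyr1023) peptide at 30/50/20/10 nM and ATP (~Km) at 20/0.7/0.2/12 μM for JAK1/JAK2/JAK3/TYK2; enzymes 0.15/0.083/0.025/0.144 ng/μL. 1.5 h at r.t., EDTA stop, Eu-anti-phosphotyrosine read. 11-point 5-fold series from 20 μM; IC50 by variable-slope fit.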

JAK 2 = JAK 2 (Homo sapiens, UniProt O60674); assay: Biochemical potency on JAK2, TR-FRET LANCE Ultra kinase assay (examples 1-99); details: ATP at Km (0.7 μM), read-out: JAK2 inhibitory activity (pIC50 class) (converted)
Summary of the method: as §1

JAK 3 = target: T1, JAK 3 (Homo sapiens, UniProt P52333); assay: Biochemical potency on JAK3, TR-FRET LANCE Ultra kinase assay (examples 1-99); details: ATP at Km (0.2 μM), read-out: JAK3 inhibitory activity (pIC50 class) (converted)
T1 sequence (P52333 1-1124): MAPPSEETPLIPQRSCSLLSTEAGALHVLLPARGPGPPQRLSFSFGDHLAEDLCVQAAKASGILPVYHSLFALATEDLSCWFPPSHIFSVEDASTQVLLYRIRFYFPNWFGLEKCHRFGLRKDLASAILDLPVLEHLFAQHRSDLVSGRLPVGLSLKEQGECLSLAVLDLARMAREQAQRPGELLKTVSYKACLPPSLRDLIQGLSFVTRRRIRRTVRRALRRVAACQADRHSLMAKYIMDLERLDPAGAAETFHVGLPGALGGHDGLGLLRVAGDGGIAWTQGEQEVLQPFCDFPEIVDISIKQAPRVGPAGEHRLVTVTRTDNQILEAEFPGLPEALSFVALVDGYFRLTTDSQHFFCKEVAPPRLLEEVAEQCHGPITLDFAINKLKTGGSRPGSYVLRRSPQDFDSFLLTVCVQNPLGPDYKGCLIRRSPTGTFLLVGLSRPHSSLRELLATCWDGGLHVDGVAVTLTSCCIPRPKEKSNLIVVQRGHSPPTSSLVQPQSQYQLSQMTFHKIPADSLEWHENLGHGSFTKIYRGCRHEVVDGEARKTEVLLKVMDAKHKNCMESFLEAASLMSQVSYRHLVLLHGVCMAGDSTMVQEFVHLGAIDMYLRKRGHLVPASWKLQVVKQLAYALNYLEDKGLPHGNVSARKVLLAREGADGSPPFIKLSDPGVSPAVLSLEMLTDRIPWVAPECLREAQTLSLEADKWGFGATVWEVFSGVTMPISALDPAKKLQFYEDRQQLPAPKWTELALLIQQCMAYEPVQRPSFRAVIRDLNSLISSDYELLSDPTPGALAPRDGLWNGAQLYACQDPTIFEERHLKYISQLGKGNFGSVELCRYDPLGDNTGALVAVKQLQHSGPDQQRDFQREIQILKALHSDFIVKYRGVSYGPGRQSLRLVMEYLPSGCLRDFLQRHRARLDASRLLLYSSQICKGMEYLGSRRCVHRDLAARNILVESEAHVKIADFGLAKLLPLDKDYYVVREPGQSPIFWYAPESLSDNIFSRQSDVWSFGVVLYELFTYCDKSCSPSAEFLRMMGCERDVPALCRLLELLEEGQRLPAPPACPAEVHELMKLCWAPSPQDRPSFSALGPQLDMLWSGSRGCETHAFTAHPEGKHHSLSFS
Summary of the method: as §1

JAK 1 = JAK 1 (Homo sapiens, UniProt P23458); assay: Biochemical potency on JAK1, TR-FRET LANCE Ultra kinase assay (examples 1-99); details: ATP at Km (20 μM), read-out: JAK1 inhibitory activity (pIC50 class) (converted)
Summary of the method: as §1

Chain of JAK 1 (P23458 whole entry): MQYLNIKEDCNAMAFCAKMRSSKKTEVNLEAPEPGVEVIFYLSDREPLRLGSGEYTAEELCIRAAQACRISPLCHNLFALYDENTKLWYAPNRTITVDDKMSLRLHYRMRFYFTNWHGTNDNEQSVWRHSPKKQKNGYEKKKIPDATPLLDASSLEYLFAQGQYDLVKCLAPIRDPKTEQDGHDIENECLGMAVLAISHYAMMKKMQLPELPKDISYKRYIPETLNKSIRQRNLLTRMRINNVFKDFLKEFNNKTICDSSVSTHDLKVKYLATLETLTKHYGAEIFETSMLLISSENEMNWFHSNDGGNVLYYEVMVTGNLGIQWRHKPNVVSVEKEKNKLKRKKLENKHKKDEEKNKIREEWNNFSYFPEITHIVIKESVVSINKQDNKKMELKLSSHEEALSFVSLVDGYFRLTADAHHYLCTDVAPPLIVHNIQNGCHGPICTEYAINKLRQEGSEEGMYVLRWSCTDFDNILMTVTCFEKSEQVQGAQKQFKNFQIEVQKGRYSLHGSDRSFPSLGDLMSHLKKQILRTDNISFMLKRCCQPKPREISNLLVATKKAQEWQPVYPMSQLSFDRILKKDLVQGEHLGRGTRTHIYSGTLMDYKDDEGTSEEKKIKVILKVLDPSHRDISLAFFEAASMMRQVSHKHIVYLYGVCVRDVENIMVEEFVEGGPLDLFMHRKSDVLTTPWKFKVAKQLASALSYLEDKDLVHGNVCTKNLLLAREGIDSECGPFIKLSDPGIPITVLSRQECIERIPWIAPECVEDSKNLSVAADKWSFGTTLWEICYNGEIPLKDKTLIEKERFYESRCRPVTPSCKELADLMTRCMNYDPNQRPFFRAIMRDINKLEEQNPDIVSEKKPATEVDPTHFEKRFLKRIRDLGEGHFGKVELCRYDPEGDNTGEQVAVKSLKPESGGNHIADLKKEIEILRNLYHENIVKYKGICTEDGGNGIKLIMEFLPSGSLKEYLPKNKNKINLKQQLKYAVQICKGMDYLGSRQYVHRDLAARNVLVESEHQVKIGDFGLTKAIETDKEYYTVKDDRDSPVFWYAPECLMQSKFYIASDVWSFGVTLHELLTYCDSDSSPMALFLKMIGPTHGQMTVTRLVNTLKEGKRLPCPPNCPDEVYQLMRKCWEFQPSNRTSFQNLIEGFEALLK
Chain of JAK 2 (O60674 whole entry): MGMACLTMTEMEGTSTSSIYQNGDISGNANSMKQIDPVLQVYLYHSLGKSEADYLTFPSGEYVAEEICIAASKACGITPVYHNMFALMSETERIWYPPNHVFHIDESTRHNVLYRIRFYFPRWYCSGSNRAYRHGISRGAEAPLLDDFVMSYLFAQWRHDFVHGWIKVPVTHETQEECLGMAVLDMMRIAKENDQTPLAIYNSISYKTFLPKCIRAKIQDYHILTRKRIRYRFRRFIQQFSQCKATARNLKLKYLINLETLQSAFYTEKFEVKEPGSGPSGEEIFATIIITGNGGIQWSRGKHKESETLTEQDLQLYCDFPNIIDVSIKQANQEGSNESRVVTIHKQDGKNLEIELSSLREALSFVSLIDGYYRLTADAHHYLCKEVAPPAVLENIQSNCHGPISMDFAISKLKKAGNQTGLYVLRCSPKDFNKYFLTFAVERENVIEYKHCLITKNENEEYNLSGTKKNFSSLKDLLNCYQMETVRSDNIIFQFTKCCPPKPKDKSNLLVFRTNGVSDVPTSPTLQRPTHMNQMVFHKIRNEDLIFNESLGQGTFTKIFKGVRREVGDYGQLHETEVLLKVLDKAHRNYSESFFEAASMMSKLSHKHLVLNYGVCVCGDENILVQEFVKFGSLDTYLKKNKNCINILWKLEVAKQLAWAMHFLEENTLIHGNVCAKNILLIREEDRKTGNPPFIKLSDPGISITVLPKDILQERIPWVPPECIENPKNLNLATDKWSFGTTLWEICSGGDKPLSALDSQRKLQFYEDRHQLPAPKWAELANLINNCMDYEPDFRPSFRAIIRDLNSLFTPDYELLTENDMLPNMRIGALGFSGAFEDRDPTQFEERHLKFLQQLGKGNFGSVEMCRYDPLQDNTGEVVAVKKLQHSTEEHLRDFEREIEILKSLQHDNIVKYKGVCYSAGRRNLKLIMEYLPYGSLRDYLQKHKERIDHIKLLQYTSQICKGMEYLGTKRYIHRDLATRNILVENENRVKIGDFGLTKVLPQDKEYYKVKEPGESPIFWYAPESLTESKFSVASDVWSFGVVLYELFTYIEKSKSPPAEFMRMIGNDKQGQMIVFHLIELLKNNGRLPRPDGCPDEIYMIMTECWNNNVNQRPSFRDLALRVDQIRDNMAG
Chain of TYK2 (P29597 whole entry): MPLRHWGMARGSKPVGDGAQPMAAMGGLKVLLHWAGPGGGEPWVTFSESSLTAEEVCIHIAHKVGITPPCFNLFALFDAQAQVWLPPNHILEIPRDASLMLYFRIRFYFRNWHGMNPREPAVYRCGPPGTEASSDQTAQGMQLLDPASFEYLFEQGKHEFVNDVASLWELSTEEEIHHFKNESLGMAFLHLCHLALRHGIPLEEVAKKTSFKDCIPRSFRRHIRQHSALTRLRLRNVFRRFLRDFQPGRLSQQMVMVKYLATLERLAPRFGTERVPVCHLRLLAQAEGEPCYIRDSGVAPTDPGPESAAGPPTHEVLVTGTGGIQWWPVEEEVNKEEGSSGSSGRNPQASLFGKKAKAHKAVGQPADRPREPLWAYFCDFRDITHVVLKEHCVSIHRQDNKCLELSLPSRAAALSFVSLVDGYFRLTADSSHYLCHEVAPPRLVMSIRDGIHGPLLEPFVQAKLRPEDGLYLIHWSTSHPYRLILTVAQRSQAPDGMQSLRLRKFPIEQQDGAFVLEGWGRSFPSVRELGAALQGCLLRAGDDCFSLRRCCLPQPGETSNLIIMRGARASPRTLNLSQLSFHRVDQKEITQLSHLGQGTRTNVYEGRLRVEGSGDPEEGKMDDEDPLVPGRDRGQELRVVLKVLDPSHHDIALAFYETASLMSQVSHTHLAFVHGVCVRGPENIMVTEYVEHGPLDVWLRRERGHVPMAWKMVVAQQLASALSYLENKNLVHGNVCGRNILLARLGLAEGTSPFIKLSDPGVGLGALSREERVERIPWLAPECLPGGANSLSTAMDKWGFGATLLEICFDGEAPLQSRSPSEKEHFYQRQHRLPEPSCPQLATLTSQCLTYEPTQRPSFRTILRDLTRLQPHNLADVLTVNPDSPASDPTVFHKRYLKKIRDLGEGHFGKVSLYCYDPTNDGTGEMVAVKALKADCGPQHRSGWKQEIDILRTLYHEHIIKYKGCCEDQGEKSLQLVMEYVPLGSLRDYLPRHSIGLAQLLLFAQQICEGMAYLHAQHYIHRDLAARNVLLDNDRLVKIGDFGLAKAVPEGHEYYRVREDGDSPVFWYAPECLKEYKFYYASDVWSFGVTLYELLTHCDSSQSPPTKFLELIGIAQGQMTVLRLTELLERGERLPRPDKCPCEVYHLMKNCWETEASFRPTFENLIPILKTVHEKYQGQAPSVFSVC

| Compound | IC50 (TYK2) | IC50 (JAK 2) | IC50 (JAK 3) | IC50 (JAK 1) |
| --- | --- | --- | --- | --- |
| Cc1nn(-c2cc(Cl)ccc2SC(F)F)c2cc(-c3cnn4cccnc34)ncc12 [Example 6, 1-(5-chloro-2-((difluoromethyl)thio)phenyl)-3-methyl-6-(pyrazolo[1,5-a]pyrimidin-3-yl)-1H-pyrazolo[4,3-c]pyridine] | 5.01 to 50.1 nM | 5.01 to 50.1 nM | ≤ 5.01 nM | 5.01 to 50.1 nM |
| Cc1nn(-c2cc(Cl)ccc2CO)c2cc(-c3cnn4cccnc34)ncc12 [Example 62, (4-chloro-2-(3-methyl-6-(pyrazolo[1,5-a]pyrimidin-3-yl)-1H-pyrazolo[4,3-c]pyridin-1-yl)phenyl)methanol] | > 50.1 nM | 5.01 to 50.1 nM | 5.01 to 50.1 nM | > 50.1 nM |
| NCc1nn(-c2cc(Cl)ccc2OC(F)F)c2cc(-c3cnn4cccnc34)ncc12 [Example 32, (1-(5-chloro-2-(difluoromethoxy)phenyl)-6-(pyrazolo[1,5-a]pyrimidin-3-yl)-1H-pyrazolo[4,3-c]pyridin-3-yl)methanamine] | 5.01 to 50.1 nM | ≤ 5.01 nM | 5.01 to 50.1 nM | 5.01 to 50.1 nM |
| Cc1nn(-c2cc(Cl)ccc2OC2CC2)c2cc(-c3cnn4cccnc34)ncc12 [Example 7, 1-(5-chloro-2-cyclopropoxyphenyl)-3-methyl-6-(pyrazolo[1,5-a]pyrimidin-3-yl)-1H-pyrazolo[4,3-c]pyridine] | 5.01 to 50.1 nM | ≤ 5.01 nM | ≤ 5.01 nM | 5.01 to 50.1 nM |
| COc1ccc(NS(C)(=O)=O)cc1-n1nc(NCCN(C)C)c2cnc(-c3cnn4cccnc34)cc21 [Example 86, N-(3-(3-((2-(dimethylamino)ethyl)amino)-6-(pyrazolo[1,5-a]pyrimidin-3-yl)-1H-pyrazolo[4,3-c]pyridin-1-yl)-4-methoxyphenyl)methanesulfonamide] | > 50.1 nM | 5.01 to 50.1 nM | 5.01 to 50.1 nM | > 50.1 nM |
| COc1ccc(S(=O)(=O)NCCN2CCN(C)CC2)cc1-n1nc(C)c2cnc(-c3cnn4cccnc34)cc21 [Example 18, 4-methoxy-3-(3-methyl-6-(pyrazolo[1,5-a]pyrimidin-3-yl)-1H-pyrazolo[4,3-c]pyridin-1-yl)-N-(2-(4-methylpiperazin-1-yl)ethyl)benzenesulfonamide] | > 50.1 nM | 5.01 to 50.1 nM | > 50.1 nM | 5.01 to 50.1 nM |
| COc1ccc(S(C)(=O)=O)cc1-n1nc(C(=O)NCCCN2CCOCC2)c2cnc(-c3cnn4cccnc34)cc21 [Example 84, 1-(2-methoxy-5-(methylsulfonyl)phenyl)-N-(3-morpholinopropyl)-6-(pyrazolo[1,5-a]pyrimidin-3-yl)-1H-pyrazolo[4,3-c]pyridine-3-carboxamide] | > 50.1 nM | 5.01 to 50.1 nM | 5.01 to 50.1 nM | 5.01 to 50.1 nM |
| COc1ccc(F)cc1-n1nc(NCCCN(C)C)c2cnc(Nc3ncc[nH]c3=O)cc21 [Example 97, 3-((3-((3-(dimethylamino)propyl)amino)-1-(5-fluoro-2-methoxyphenyl)-1H-pyrazolo[4,3-c]pyridin-6-yl)amino)pyrazin-2(1H)-one] | 5.01 to 50.1 nM | ≤ 5.01 nM | ≤ 5.01 nM | 5.01 to 50.1 nM |
| CNc1nn(-c2cc(S(C)(=O)=O)ccc2OC)c2cc(-c3cnn4cccnc34)ncc12 [Example 85, 1-(2-methoxy-5-(methylsulfonyl)phenyl)-N-methyl-6-(pyrazolo[1,5-a]pyrimidin-3-yl)-1H-pyrazolo[4,3-c]pyridin-3-amine] | > 50.1 nM | ≤ 5.01 nM | 5.01 to 50.1 nM | > 50.1 nM |
| COc1ccc(C(F)F)cc1-n1nc(NCCN(C)C)c2cnc(Nc3ncc[nH]c3=O)cc21 [Example 98, 3-((1-(5-(difluoromethyl)-2-methoxyphenyl)-3-((2-(dimethylamino)ethyl)amino)-1H-pyrazolo[4,3-c]pyridin-6-yl)amino)pyrazin-2(1H)-one] | 5.01 to 50.1 nM | 5.01 to 50.1 nM | 5.01 to 50.1 nM | 5.01 to 50.1 nM |
| COc1ccc(Cl)cc1-n1nc(N2CC(CO)C2)c2cnc(-c3cnn4cccnc34)cc21 [Example 49, (1-(1-(5-chloro-2-methoxyphenyl)-6-(pyrazolo[1,5-a]pyrimidin-3-yl)-1H-pyrazolo[4,3-c]pyridin-3-yl)azetidin-3-yl)methanol] | 5.01 to 50.1 nM | 5.01 to 50.1 nM | 5.01 to 50.1 nM | 5.01 to 50.1 nM |
| CNC(=O)c1nn(-c2cc(Cl)ccc2OC(F)F)c2cc(-c3cnn4cccnc34)ncc12 [Example 33, 1-(5-chloro-2-(difluoromethoxy)phenyl)-N-methyl-6-(pyrazolo[1,5-a]pyrimidin-3-yl)-1H-pyrazolo[4,3-c]pyridine-3-carboxamide] | 5.01 to 50.1 nM | ≤ 5.01 nM | ≤ 5.01 nM | ≤ 5.01 nM |
| CCCS(=O)(=O)c1ccc(OC)c(-n2nc(C)c3cnc(-c4cnn5cccnc45)cc32)c1 [Example 10, 1-(2-methoxy-5-(propylsulfonyl)phenyl)-3-methyl-6-(pyrazolo[1,5-a]pyrimidin-3-yl)-1H-pyrazolo[4,3-c]pyridine] | > 50.1 nM | 5.01 to 50.1 nM | ≤ 5.01 nM | 5.01 to 50.1 nM |

Second part, the molecule after the results:

| IC50 (TYK2) | IC50 (JAK 2) | IC50 (JAK 3) | IC50 (JAK 1) | Compound |
| --- | --- | --- | --- | --- |
| 5.01 to 50.1 nM | ≤ 5.01 nM | ≤ 5.01 nM | 5.01 to 50.1 nM | Cc1nn(-c2cc(C#N)ccc2OC(F)F)c2cc(-c3cnn4cccnc34)ncc12 [Example 64, 4-(difluoromethoxy)-3-(3-methyl-6-(pyrazolo[1,5-a]pyrimidin-3-yl)-1H-pyrazolo[4,3-c]pyridin-1-yl)benzonitrile] |
| 5.01 to 50.1 nM | ≤ 5.01 nM | ≤ 5.01 nM | ≤ 5.01 nM | CSc1ccc(OC(F)F)c(-n2nc(C)c3cnc(-c4cnn5cccnc45)cc32)c1 [Example 13, 1-(2-(difluoromethoxy)-5-(methylthio)phenyl)-3-methyl-6-(pyrazolo[1,5-a]pyrimidin-3-yl)-1H-pyrazolo[4,3-c]pyridine] |
| > 50.1 nM | 5.01 to 50.1 nM | 5.01 to 50.1 nM | 5.01 to 50.1 nM | Cc1nn(-c2cc(SCC(=O)NCCO)ccc2OC(F)F)c2cc(-c3cnn4cccnc34)ncc12 [Example 69, 2-((4-(difluoromethoxy)-3-(3-methyl-6-(pyrazolo[1,5-a]pyrimidin-3-yl)-1H-pyrazolo[4,3-c]pyridin-1-yl)phenyl)thio)-N-(2-hydroxyethyl)acetamide] |
| > 50.1 nM | 5.01 to 50.1 nM | 5.01 to 50.1 nM | 5.01 to 50.1 nM | CC(=O)N1CCC(Sc2ccc(OC(F)F)c(-n3nc(C)c4cnc(-c5cnn6cccnc56)cc43)c2)CC1 [Example 75, 1-(4-((4-(difluoromethoxy)-3-(3-methyl-6-(pyrazolo[1,5-a]pyrimidin-3-yl)-1H-pyrazolo[4,3-c]pyridin-1-yl)phenyl)thio)piperidin-1-yl)ethan-1-one] |
| > 50.1 nM | ≤ 5.01 nM | ≤ 5.01 nM | 5.01 to 50.1 nM | CC(=O)N1CCC(S(=O)(=O)c2ccc(OC(F)F)c(-n3nc(C)c4cnc(-c5cnn6cccnc56)cc43)c2)C1 (stereo not shown) [Example 24, 1-(3-((4-(difluoromethoxy)-3-(3-methyl-6-(pyrazolo[1,5-a]pyrimidin-3-yl)-1H-pyrazolo[4,3-c]pyridin-1-yl)phenyl)sulfonyl)pyrrolidin-1-yl)ethan-1-one] |
| 5.01 to 50.1 nM | ≤ 5.01 nM | ≤ 5.01 nM | 5.01 to 50.1 nM | Cc1nn(-c2cc(S(=O)(=O)CCO)ccc2OC(F)F)c2cc(-c3cnn4cccnc34)ncc12 [Example 22, 2-((4-(difluoromethoxy)-3-(3-methyl-6-(pyrazolo[1,5-a]pyrimidin-3-yl)-1H-pyrazolo[4,3-c]pyridin-1-yl)phenyl)sulfonyl)ethan-1-ol] |
